# Measured values: PMC4268911 (International Journal of Nanomedicine, 2014)
# Legend:
# MCF-7 cells = experiment: In vitro cytotoxicity of conjugate, MTS-based assay; format: cell-based, human; settings: MCF-7, 0–200 μg mL−1 polymer, 24 hours
# MDAMB 231 cells = experiment: as above; format: cell-based, human; settings: MDAMB 231, 0–200 μg mL−1 polymer, 24 hours
substance,measurement,setting,value
Low-molecular-weight heparin [LMWH],cytotoxicity (cell viability),MCF-7 cells,no severe in vitro cytotoxicity
same,cytotoxicity (cell viability),MDAMB 231 cells,no severe in vitro cytotoxicity
